Data as given in patent US20070032443A1, “Therapy for Alzheimer's disease” (priority 2005, published 2007).

Tested on: HEK293 cells
Assay: Viability of HEK293 cells in culture with test compound
Assay type: cell-based, human
Set-up: key: ns: results are not shown due to poor viability of HEK293 cells in culture at the indicated compound concentration
Details: 10^−3 dilution of working concentration of Table 4 (D 0.1 millimolar); 6 days of culture

In the case of O=P(O)(O)C(O)(Cn1ccnc1)P(=O)(O)O [Compound D, zolendronic acid], the “Viability of HEK293 cells in culture” value is reported as “ns^2”.
